In PubChem BioAssay (NCI):
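Five compound concentrations were applied to cells in 96-well plates for 48 hours; endpoints were derived by simple linear interpolation of the resulting dose-response curve. TGI: concentration producing complete growth inhibition.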

Assays:
Assay in all cases: DTP human tumour cell line panel, 48 h
CCRF-CEM leukemia = test system: CCRF-CEM leukemia
HL-60(TB) leukemia = test system: HL-60(TB) leukemia
HOP-92 NSCLC = test system: HOP-92 NSCLC
MALME-3M melanoma = test system: MALME-3M melanoma
NCI/ADR-RES ovarian = test system: NCI/ADR-RES ovarian
NCI-H460 lung = test system: NCI-H460 lung
UACC-62 melanoma = test system: UACC-62 melanoma
OVCAR-3 ovarian = test system: OVCAR-3 ovarian
CAKI-1 renal = test system: CAKI-1 renal
786-0 renal = test system: 786-0 renal
HCC-2998 colon = test system: HCC-2998 colon
RPMI-8226 leukemia = test system: RPMI-8226 leukemia
SK-MEL-5 melanoma = test system: SK-MEL-5 melanoma
BT-549 breast = test system: BT-549 breast
NCI-H522 lung = test system: NCI-H522 lung
DU-145 prostate = test system: DU-145 prostate
PC-3 prostate = test system: PC-3 prostate
SN12C renal = test system: SN12C renal
OVCAR-5 ovarian = test system: OVCAR-5 ovarian
SK-OV-3 ovarian = test system: SK-OV-3 ovarian
HS 578T breast = test system: HS 578T breast
SK-MEL-28 melanoma = test system: SK-MEL-28 melanoma
KM12 colon = test system: KM12 colon
SNB-75 CNS = test system: SNB-75 CNS
TK-10 renal = test system: TK-10 renal
T-47D breast = test system: T-47D breast
U251 CNS = test system: U251 CNS
OVCAR-8 ovarian = test system: OVCAR-8 ovarian
COLO 205 colon = test system: COLO 205 colon
MDA-MB-435 = test system: MDA-MB-435
IGROV1 ovarian = test system: IGROV1 ovarian
LOX IMVI melanoma = test system: LOX IMVI melanoma
A498 renal = test system: A498 renal
A549 NSCLC = test system: A549 NSCLC
NCI-H23 lung = test system: NCI-H23 lung
MDA-N = test system: MDA-N
EKVX NSCLC = test system: EKVX NSCLC
SNB-19 CNS = test system: SNB-19 CNS
M14 melanoma = test system: M14 melanoma
HCT-116 colon = test system: HCT-116 colon
ACHN renal = test system: ACHN renal
SW-620 colon = test system: SW-620 colon
NCI-H226 lung = test system: NCI-H226 lung
SF-539 CNS = test system: SF-539 CNS
MCF7 breast = test system: MCF7 breast
UACC-257 melanoma = test system: UACC-257 melanoma
SF-295 CNS = test system: SF-295 CNS
HT29 colon = test system: HT29 colon
MDA-MB-231 breast = test system: MDA-MB-231 breast
SF-268 CNS = test system: SF-268 CNS
SK-MEL-2 melanoma = test system: SK-MEL-2 melanoma
HOP-62 NSCLC = test system: HOP-62 NSCLC
HCT-15 colon = test system: HCT-15 colon
UO-31 renal = test system: UO-31 renal
K-562 leukemia = test system: K-562 leukemia
MOLT-4 leukemia = test system: MOLT-4 leukemia
RXF 393 renal = test system: RXF 393 renal
SR leukemia = test system: SR leukemia

**Q.** Which results are given for `CC(=O)OC1CC(OC2C(O)CC(OC3C(O)CC(OC4CCC5(C)C(CCC6C5CCC5(C)C(C7=CC(=O)OC7)C(O)CC65O)C4)OC3C)OC2C)OC(C)C1OC1OC(CO)C(O)C(O)C1O` (stereo not given)?
**A.** TGI (CCRF-CEM leukemia): > 100 µM; TGI (HL-60(TB) leukemia): 0.577 µM; TGI (HOP-92 NSCLC): 3.17 µM; TGI (MALME-3M melanoma): 1.85 µM; TGI (NCI/ADR-RES ovarian): 0.755 µM; TGI (NCI-H460 lung): 0.491 µM; TGI (UACC-62 melanoma): 1.98 µM; TGI (OVCAR-3 ovarian): 1.24 µM; TGI (CAKI-1 renal): 0.461 µM; TGI (786-0 renal): 0.943 µM; TGI (HCC-2998 colon): 4.09 µM; TGI (RPMI-8226 leukemia): 5.7 µM; TGI (SK-MEL-5 melanoma): 1.06 µM; TGI (BT-549 breast): 1.26 µM; TGI (NCI-H522 lung): 1.2 µM; TGI (DU-145 prostate): 0.684 µM; TGI (PC-3 prostate): 1.55 µM; TGI (SN12C renal): 1.32 µM; TGI (OVCAR-5 ovarian): 1.72 µM; TGI (SK-OV-3 ovarian): 2.1 µM; TGI (HS 578T breast): > 100 µM; TGI (SK-MEL-28 melanoma): 3.61 µM; TGI (KM12 colon): 1.94 µM; TGI (SNB-75 CNS): 2.97 µM; TGI (TK-10 renal): 2.14 µM; TGI (T-47D breast): 3.32 µM; TGI (U251 CNS): 1.45 µM; TGI (OVCAR-8 ovarian): 1.56 µM; TGI (COLO 205 colon): 2.13 µM; TGI (MDA-MB-435): 2.08 µM; TGI (IGROV1 ovarian): 3.58 µM; TGI (LOX IMVI melanoma): 1.14 µM; TGI (A498 renal): 2.13 µM; TGI (A549 NSCLC): 0.244 µM; TGI (NCI-H23 lung): 0.424 µM; TGI (MDA-N): 1.77 µM; TGI (EKVX NSCLC): 0.803 µM; TGI (SNB-19 CNS): 2.19 µM; TGI (M14 melanoma): 2.31 µM; TGI (HCT-116 colon): 0.91 µM; TGI (ACHN renal): 0.942 µM; TGI (SW-620 colon): 1.45 µM; TGI (NCI-H226 lung): 2.66 µM; TGI (SF-539 CNS): 0.421 µM; TGI (MCF7 breast): 15.8 µM; TGI (UACC-257 melanoma): 1.88 µM; TGI (SF-295 CNS): 1.43 µM; TGI (HT29 colon): 1.76 µM; TGI (MDA-MB-231 breast): 6.42 µM; TGI (SF-268 CNS): 2.48 µM; TGI (SK-MEL-2 melanoma): 2.16 µM; TGI (HOP-62 NSCLC): 0.483 µM; TGI (HCT-15 colon): 1.16 µM; TGI (UO-31 renal): 1.46 µM; TGI (K-562 leukemia): > 100 µM; TGI (MOLT-4 leukemia): > 100 µM

**Q.** With `COc1c2c(cc3occ(-c4ccc(CC=C(C)C)cc4)c(=O)c13)OC(C)(C)C=C2` as the compound, how does the TGI (CCRF-CEM leukemia) read?
**A.** The TGI was over 100 µM.

**Q.** And the TGI (HL-60(TB) leukemia)?
**A.** Its TGI is 46.4 µM.

**Q.** And the TGI (MALME-3M melanoma)?
**A.** The TGI was over 100 µM.

**Q.** And the TGI (NCI/ADR-RES ovarian)?
**A.** Its TGI is over 100 µM.

**Q.** And the TGI (UACC-62 melanoma)?
**A.** The TGI was over 100 µM.

**Q.** What about the TGI (OVCAR-3 ovarian) of the same compound?
**A.** The TGI was over 100 µM.

**Q.** And the TGI (CAKI-1 renal)?
**A.** The TGI was over 100 µM.

**Q.** What about the TGI (786-0 renal) of the same compound?
**A.** Its TGI is over 100 µM.

**Q.** What about the TGI (HCC-2998 colon) of the same compound?
**A.** Its TGI is over 100 µM.

**Q.** And the TGI (RPMI-8226 leukemia)?
**A.** Its TGI is 50.3 µM.

**Q.** What about the TGI (SK-MEL-5 melanoma) of the same compound?
**A.** Its TGI is 48.9 µM.

**Q.** What about the TGI (BT-549 breast) of the same compound?
**A.** Its TGI is over 100 µM.

**Q.** What about the TGI (NCI-H522 lung) of the same compound?
**A.** Its TGI is over 100 µM.

**Q.** What about the TGI (DU-145 prostate) of the same compound?
**A.** The TGI was over 100 µM.

**Q.** And the TGI (PC-3 prostate)?
**A.** The TGI was over 100 µM.

**Q.** What about the TGI (SN12C renal) of the same compound?
**A.** Its TGI is over 100 µM.

**Q.** What about the TGI (OVCAR-5 ovarian) of the same compound?
**A.** Its TGI is over 100 µM.

**Q.** And the TGI (SK-OV-3 ovarian)?
**A.** Its TGI is over 100 µM.

**Q.** What about the TGI (HS 578T breast) of the same compound?
**A.** The TGI was over 100 µM.

**Q.** And the TGI (SK-MEL-28 melanoma)?
**A.** The TGI was over 100 µM.

**Q.** What about the TGI (KM12 colon) of the same compound?
**A.** Its TGI is over 100 µM.

**Q.** And the TGI (SNB-75 CNS)?
**A.** The TGI was over 100 µM.

**Q.** What about the TGI (TK-10 renal) of the same compound?
**A.** Its TGI is over 100 µM.

**Q.** And the TGI (T-47D breast)?
**A.** Its TGI is over 100 µM.

**Q.** What about the TGI (U251 CNS) of the same compound?
**A.** Its TGI is over 100 µM.

**Q.** And the TGI (OVCAR-8 ovarian)?
**A.** The TGI was over 100 µM.

**Q.** And the TGI (COLO 205 colon)?
**A.** The TGI was over 100 µM.

**Q.** And the TGI (MDA-MB-435)?
**A.** Its TGI is over 100 µM.

**Q.** What about the TGI (RXF 393 renal) of the same compound?
**A.** Its TGI is over 100 µM.

**Q.** What about the TGI (IGROV1 ovarian) of the same compound?
**A.** The TGI was over 100 µM.

**Q.** And the TGI (LOX IMVI melanoma)?
**A.** The TGI was over 100 µM.

**Q.** And the TGI (A549 NSCLC)?
**A.** The TGI was over 100 µM.

**Q.** And the TGI (NCI-H23 lung)?
**A.** The TGI was over 100 µM.

**Q.** And the TGI (MDA-N)?
**A.** The TGI was over 100 µM.

**Q.** What about the TGI (EKVX NSCLC) of the same compound?
**A.** Its TGI is over 100 µM.

**Q.** What about the TGI (SNB-19 CNS) of the same compound?
**A.** The TGI was over 100 µM.

**Q.** What about the TGI (M14 melanoma) of the same compound?
**A.** The TGI was over 100 µM.

**Q.** What about the TGI (HCT-116 colon) of the same compound?
**A.** Its TGI is over 100 µM.

**Q.** And the TGI (ACHN renal)?
**A.** The TGI was over 100 µM.

**Q.** What about the TGI (SW-620 colon) of the same compound?
**A.** Its TGI is over 100 µM.

**Q.** And the TGI (NCI-H226 lung)?
**A.** Its TGI is over 100 µM.

**Q.** And the TGI (MCF7 breast)?
**A.** Its TGI is over 100 µM.

**Q.** What about the TGI (UACC-257 melanoma) of the same compound?
**A.** Its TGI is over 100 µM.

**Q.** And the TGI (SF-295 CNS)?
**A.** Its TGI is over 100 µM.

**Q.** What about the TGI (HT29 colon) of the same compound?
**A.** Its TGI is over 100 µM.

**Q.** And the TGI (SR leukemia)?
**A.** The TGI was over 100 µM.

**Q.** And the TGI (MDA-MB-231 breast)?
**A.** Its TGI is over 100 µM.

**Q.** What about the TGI (SF-268 CNS) of the same compound?
**A.** The TGI was over 100 µM.

**Q.** What about the TGI (SK-MEL-2 melanoma) of the same compound?
**A.** Its TGI is 62.7 µM.

**Q.** And the TGI (HOP-62 NSCLC)?
**A.** The TGI was over 100 µM.

**Q.** And the TGI (HCT-15 colon)?
**A.** The TGI was over 100 µM.

**Q.** And the TGI (UO-31 renal)?
**A.** The TGI was over 100 µM.

**Q.** And the TGI (K-562 leukemia)?
**A.** Its TGI is over 100 µM.

**Q.** And the TGI (MOLT-4 leukemia)?
**A.** The TGI was 52.1 µM.
